Experimental data taken from patent publication US20220168309A1 (F-STAR THERAPEUTICS, INC., priority 2019, published 2022).

These compounds were tested against STING (Homo sapiens, UniProt Q86WV6) (assay: STING antagonist activity, cell-based ISG54 promoter-reporter luciferase measurement of IRF activity (THP-1 dual / RAW-ISG cells)). Conditions: Antagonist Activity of Exemplary Compounds; cell line and agonist not given.
Method: THP-1 dual cells (InvivoGen) were cultured under 5% CO2 at 37° C. in RPMI containing 10% fetal bovine serum (FBS), 100 IU mL-1 penicillin and 100 μg mL-1 streptomycin. RAW-ISG cells (InvivoGen) were cultured under 5% CO2 at 37° C. in DMEM containing 10% fetal bovine serum (FBS), 100 IU mL-1 penicillin and 100 μg mL-1 streptomycin. THP-1 dual cells were seeded into the 96 well assay plate on the day of assay whereas RAW cells were seeded into the 96 well assay plate 18 hours before the assay.
(§1) 50,000 cells seeded in a 96-well flat bottom white assay plate were treated with different concentrations (10 uM to 0.01 uM) of compounds for 1 h followed by STING induction with either 30 nM SB 11285 or 10 ug/mL 2′-3′ cGAMP. The cells were then incubated for 20 hours @ 37° C. in CO2 incubator before measuring IRF activation by using Quanti-Luc (InvivoGen). The % inhibition was calculated as 100−{[(luminescence of COI treated well/luminescence of non-COI treated well)/100]×100}. IC50 was calculated by plotting in Xlfit.
as §1, with “1 μM” for “30 nM”
THP1-Dual-WT cells (InvivoGen) were plated into 96-well flat bottom plate at 5×10^4 cells/140 μL/well in triplicate. Cells were then treated with diluted antagonist compounds at 10 μL/well for 1 h, followed by treatment with compounds or 2′3′-cGAMP/lipo mixture for 18 h. The levels of IRF activity were determined using Quanti-luc (InvivoGen) and calculated against IRF activity in DMSO-treated cells. IC50 and CC50 values were calculated using Xlfit.

STING, sequence (Q86WV6 whole entry): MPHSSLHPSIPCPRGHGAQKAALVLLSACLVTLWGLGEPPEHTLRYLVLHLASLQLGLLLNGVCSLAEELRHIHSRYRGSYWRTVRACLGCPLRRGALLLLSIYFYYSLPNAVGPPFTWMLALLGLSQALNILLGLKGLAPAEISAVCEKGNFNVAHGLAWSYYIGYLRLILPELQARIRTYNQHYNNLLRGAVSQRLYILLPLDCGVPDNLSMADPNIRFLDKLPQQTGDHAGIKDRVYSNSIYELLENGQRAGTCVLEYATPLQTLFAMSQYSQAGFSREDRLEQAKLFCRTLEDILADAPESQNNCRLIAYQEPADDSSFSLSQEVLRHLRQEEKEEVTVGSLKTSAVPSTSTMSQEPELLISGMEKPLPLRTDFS

Row | Compound | IC50
1 | CCN(CC)c1nc2nc(Cl)nc(Cl)c2n1CCCCCCCCCCCCCCCC(=O)OC [Compound 117, methyl 16-(2,6-dichloro-8-(diethylamino)-7H-purin-7-yl)hexadecanoate] | 5000 to 10000 nM

Same assay, conditions: Antagonist Activity of Exemplary Compounds; cell line and agonist not given; read-out: IC50

Row | Compound | IC50
2 | Cc1nc2c(Cl)nc(Cl)nc2n1CCCCCCCCCCCCCCCc1nnnn1C [Compound 100, 2,6-dichloro-8-methyl-9-(15-(1-methyl-1H-tetrazol-5-yl)pentadecyl)-9H-purine] | 5000 to 10000 nM
3 | Cc1nc2nc(Cl)nc(Cl)c2n1CCCCCCCCCCCCCCCc1nnnn1C [Compound 101, 2,6-dichloro-8-methyl-7-(15-(1-methyl-1H-tetrazol-5-yl)pentadecyl)-7H-purine] | 1 to 1000 nM
4 | Cc1nc2nc(Cl)nc(Cl)c2n1CCCCCCCCCCN1CCOCC1 [Compound 102, 4-(10-(2,6-dichloro-8-methyl-7H-purin-7-yl)decyl)morpholine] | 1 to 1000 nM
5 | Cc1nc2nc(Cl)nc(Cl)c2n1C/C=C/Cn1c(C)nc2nc(Cl)nc(Cl)c21 [Compound 103, (E)-1,4-bis(2,6-dichloro-8-methyl-7H-purin-7-yl)but-2-ene] | 5000 to 10000 nM
6 | Cc1nc2nc(Cl)nc(Cl)c2n1CCCCCCCCCCCCCCCC(=O)OC[C@H](O)CO [Compound 104, (R)-2,3-dihydroxypropyl 16-(2,6-dichloro-8-methyl-7H-purin-7-yl)hexadecanoate] | 1 to 1000 nM
7 | Cc1nc2nc(Cl)nc(Cl)c2n1CCCCCCCCCCCCCCCCN1CCOCC1 [Compound 105, 4-(16-(2,6-dichloro-8-methyl-7H-purin-7-yl)hexadecyl)morpholine] | 1 to 1000 nM
8 | Cc1nc2nc(Cl)nc(Cl)c2n1CCCCCCCCCCCCCCCC(=O)OC(CO)CO [Compound 106, 1,3-dihydroxypropan-2-yl 16-(2,6-dichloro-8-methyl-7H-purin-7-yl)hexadecanoate] | 1000 to 5000 nM
9 | Cc1nc2nc(Cl)nc(Cl)c2n1CCCCCCCCCCCCCCCC(=O)OC[C@@H](O)CO [Compound 107, (S)-2,3-dihydroxypropyl 16-(2,6-dichloro-8-methyl-7H-purin-7-yl)hexadecanoate] | 1000 to 5000 nM
10 | COC(=O)CCCCCCCCCCCCCCCn1c(C)nc2nc(Cl)nc(OCCN(C)C)c21 [Compound 108, methyl 16-(2-chloro-6-(2-(dimethylamino)ethoxy)-8-methyl-7H-purin-7-yl)hexadecanoate] | 1000 to 5000 nM
11 | Cc1nc2nc(Cl)nc(S(C)(=O)=O)c2n1CCCCCCCCCCCCCCCC(=O)OC(C)C [Compound 109, isopropyl 16-(2-chloro-8-methyl-6-(methylsulfonyl)-7H-purin-7-yl)hexadecanoate] | 1 to 1000 nM
12 | Cc1nc2nc(Cl)nc(Cl)c2n1CCCCCCCCCCCCCCCCP(=O)(O)O [Compound 110, (16-(2,6-dichloro-8-methyl-7H-purin-7-yl)hexadecyl)phosphonic acid] | > 20000 nM
13 | Cc1nc2nc(Cl)nc(S(=O)(=O)C(C)C)c2n1CCCCCCCCCCCCCCCCO [Compound 111, 16-(2-chloro-6-(isopropylsulfonyl)-8-methyl-7H-purin-7-yl)hexadecan-1-ol] | 1 to 1000 nM
14 | CC1Nc2nc(Cl)nc(S(=O)(=O)C(C)C)c2N1CCCCCCCCCCCCCCCCO (stereo not shown) [Compound 112, 16-(2-chloro-6-(isopropylsulfonyl)-8-methyl-8,9-dihydro-7H-purin-7-yl)hexadecan-1-ol] | 1000 to 5000 nM
15 | Cc1nc2nc(Cl)nc(Cl)c2n1CCCCCCCCCCN1CCN(C)CC1 [Compound 113, 2,6-dichloro-8-methyl-7-(10-(4-methylpiperazin-1-yl)decyl)-7H-purine] | 1000 to 5000 nM
16 | COC(=O)CCCCCCCCCCCCCCCn1c(CO)nc2nc(Cl)nc(S(=O)(=O)C(C)C)c21 [Compound 114, Methyl 16-(2-chloro-8-(hydroxymethyl)-6-(isopropylsulfonyl)-7H-purin-7-yl)hexadecanoate] | 1 to 1000 nM
17 | Cc1nc2nc(Cl)nc(S(=O)(=O)C(C)C)c2n1CCCCCCCCCC[N+]1([O-])CCOCC1 [Compound 115, 4-(10-(2-chloro-6-(isopropylsulfonyl)-8-methyl-7H-purin-7-yl)decyl)-4-(11-oxidanyl)-4l4-morpholine] | > 20000 nM
18 | COC(=O)CCCn1c(C)nc2nc(Cl)nc(Cl)c21 [Compound 116, methyl 4-(2,6-dichloro-8-methyl-7H-purin-7-yl)butanoate] | 5000 to 10000 nM
19 | COC(=O)CCCn1c(C)nc2nc(Cl)nc(S(=O)(=O)C(C)C)c21 [Compound 118, methyl 4-(2-chloro-6-(isopropylsulfonyl)-8-methyl-7H-purin-7-yl)butanoate] | 1000 to 5000 nM
20 | CCCCCCCCCCCCCCCCn1c(CO)nc2nc(Cl)nc(Cl)c21 [Compound 119, (2,6-dichloro-7-hexadecyl-7H-purin-8-yl)methanol] | 1 to 1000 nM
21 | COC(=O)CCCCn1c(C)nc2nc(Cl)nc(S(=O)(=O)C(C)C)c21 [Compound 121, methyl 5-(2-chloro-6-(isopropylsulfonyl)-8-methyl-7H-purin-7-yl)pentanoate] | 1000 to 5000 nM
22 | CCCCCCCCCCCCCCCCn1c(CO)nc2nc(Cl)nc(S(=O)(=O)C(C)C)c21 [Compound 122, (2-chloro-7-hexadecyl-6-(isopropylsulfonyl)-7H-purin-8-yl)methanol] | 1 to 1000 nM
23 | COC(=O)CCCCCCCCCn1c(C)nc2nc(Cl)nc(Cl)c21 [Compound 123, Methyl 10-(2,6-dichloro-8-methyl-7H-purin-7-yl)decanoate] | 1000 to 5000 nM
24 | COC(=O)CCCCCCCCCn1c(C)nc2nc(Cl)nc([S+]([O-])C(C)C)c21 (stereo not shown) [Compound 124, methyl 10-(2-chloro-6-(isopropylsulfinyl)-8-methyl-7H-purin-7-yl)decanoate] | 1 to 1000 nM
25 | COC(=O)CCCCCCCCCn1c(C)nc2nc(Cl)nc(S(=O)(=O)C(C)C)c21 [Compound 125, Methyl 10-(2-chloro-6-(isopropylsulfonyl)-8-methyl-7H-purin-7-yl)decanoate] | 1000 to 5000 nM
26 | COC(=O)CCCCCCCCCCCCCCCn1c(C)nc2nc(C#N)nc(C#N)c21 [Compound 126, Methyl 16-(2,6-dicyano-8-methyl-7H-purin-7-yl)hexadecanoate] | > 20000 nM
27 | Cc1nc2nc(Cl)nc([S+]([O-])C(C)C)c2n1CCCCCCCCCC[N+]1([O-])CCOCC1 (stereo not shown) [Compound 127, 4-(10-(2-chloro-6-(isopropylsulfinyl)-8-methyl-7H-purin-7-yl)decyl)morpholine 4-oxide] | > 20000 nM
28 | COC(=O)CCCCCCCCCCCCCCCn1c(C)nc2nc(Cl)nc([S+]([O-])C(C)C)c21 (stereo not shown) [Compound 128, methyl 16-(2-chloro-6-(isopropylsulfinyl)-8-methyl-7H-purin-7-yl)hexadecanoate] | 1 to 1000 nM
29 | Cc1nc2nc(Cl)nc(SC(C)C)c2n1CCCCCCCCCC[N+]1([O-])CCOCC1 [Compound 129, 4-(10-(2-chloro-6-(isopropylthio)-8-methyl-7H-purin-7-yl)decyl)morpholine 4-oxide] | > 20000 nM
30 | COC(=O)CCCCCO[C@@H]1CCN(CCCCCCn2c(C)nc3nc(Cl)nc(Cl)c32)C1 [Compound 130] | 1 to 1000 nM
31 | CNC(=O)CCCCCCCCCCCCCCCn1c(C)nc2nc(Cl)nc(S(=O)(=O)C(C)C)c21 [Compound 131, 16-(2-chloro-6-(isopropylsulfonyl)-8-methyl-7H-purin-7-yl)-N-methylhexadecaanamide] | 1 to 1000 nM
